Key:
[1] = tested on: gastrocnemius muscles of aged mice; test: RNAseq / gene set enrichment analysis of gastrocnemius muscle of aged mice; format: in vivo, C57BL/6JRj mice
Procedure: Figure 3 ALT-007 preserves muscle mass and rewires skeletal muscle gene expression during aging. (A) Lean mass measured by echoMRI after 11 weeks of treatment (ALT-007:1 mg/kg; DMSO: equivalent volume, for 20 weeks). (B) Gastrocnemius and (C) Tibialis anterior muscle weight after 20 weeks of treatment. N = 12 per group. (D) Total ceramide levels measured in the gastrocnemius muscle. (E) Volcano plot of mitochondrial, proteostasis, amino acids, biosynthetic processes, and neuronal-related gene sets highlighted. (F,G) Gene set enrichment analysis (GSEA) of (F) pathways involved in protein folding and degradation and (G) neurogenesis pathways in the skeletal muscle of mice treated with ALT-007 (N = 5 in DMSO and N = 4 in ALT-007-treated groups). Adjusted P values in GSEA comparison are indicated as follows: *adjusted P < 0.05; **adjusted P < 0.01; ***adjusted P < 0.001.
RNA seq analysis was performed as previously described. Changes in cell composition were assessed by gene set enrichment analysis (GSEA) with the clusterProfiler package (Yu G. et al., 2012) and the MsigDB v7.5.1 mouse cell type signature set, accessed through the msigdbr package was performed. Only the gene sets relevant to skeletal muscle and neuronal cell types were retained.
1.2. Supplementary Figure 2
Gene set enrichment analysis using the MsigDB mouse cell type signature sets. Only the gene sets relevant to skeletal muscle and neuronal cell types were retained.
GSEA was performed with the cluserProfiler package and gene sets were accessed through the MsigDBr package.
(1 picture or pasted object on this page, not shown here)

[2] = design: method as in PMID 29669694; conditions: compared to Myriocin; cited from earlier work
[3] = tested on: C2C12 myoblasts carrying the APPswe mutation and human myoblasts from aged donors and patients with IBM; design: method as in PMID 37196064; conditions: cited from earlier work
[4] = Chronic (20 weeks) oral administration in aged mice: body weight, food intake, organ mass, plasma citrulline; format: in vivo, C57BL/6JRj mice; conditions: 1 mg/kg in the food
Procedure: Figure 2 Chronic oral administration of ALT-007 enhances physical fitness in aged mice. (A) Schematic representation of the study time-line. Compounds were mixed in the food, ALT-007 at 1 mg/kg and DMSO at equivalent volume. At week 0: young mice were 2 months old, and the old mice were 18 months old. (B) Body weight curve over the course of the study (20 weeks). (C) Food intake curve throughout the study. (D–G) Organ mass at sacrifice (week 20), normalized to body weight. (H) Oral glucose tolerance test (oGTT) performed at week 17. (I) Best performance during hanging time normalized to BW at week 7. (J) Best performance during grip strength on the 4 limbs normalized to BW at week 8. (K) Rotarod’s best latency time at week 9. (L) VO2Max performed at week 11. (M) Uphill maximum running time performed at week 13. N = 9 per group. (N) Difference of CK level after—before 90 min downhill running performed at week 15. N = 6 in young, N = 8 in DMSO and N = 7 in ALT-007-treated groups. (O–Q) Measurement of kCAL/h at night (O) and at day (P) and movement recording in x, y, z (Q) during 24 h in CLAMS at week 19. N = 12 per group unless specified otherwise. Quantitative data are expressed as median with IQR. *P < 0.05, **P < 0.01, ***P < 0.001, ****P < 0.0001. ANOVA test was used for multiple comparison, and the Mann–Whitney U test when comparing 2 groups. All tests were 2 sided.
Young (2 month-old) and aged (18 month-old) male C57BL/6JRj mice were purchased from Janvier Laboratories. Housing conditions involved maintaining two to five animals per cage under a 12 h light/dark cycle, with continuous access to food and water. Animals were fed a standard chow diet (Safe 150) with the following composition: 56.9% nitrogen-free extract, of which 41.0% was starch and 3.4% was sugars, 18.0% crude protein, 4.8% crude fat, 4.2% crude ash, 4.1% crude fiber and 12.0% moisture. Young (2 month-old) and old (18 month-old) mice were monitored for 20 weeks. Mice were administered either DMSO as a control or ALT-007. ALT-007 was dissolved in DMSO or DMSO alone were mixed in the food (1 mg/kg for ALT-007 or equivalent volume of DMSO for controls). Body weight and food intake measurements were recorded weekly until sacrifice.
Prior to sacrifice, mice were fasted for 4 h in the morning. Animals were sacrificed between 1:30 and 4 p.m. Mice were anesthetized with isoflurane, followed by a complete blood draw from the vena cava and perfusion with cold phosphate-buffered saline. Immediately thereafter, various tissues including liver, kidney, spleen, heart, brain, gastrocnemius muscle and tibialis anterior muscle were harvested, weighted and promptly flash-frozen in liquid nitrogen.
1.1. Supplementary Figure 1
(A) Citrulline levels in the plasma of mice treated with ALT-007 at 1 mg/kg or vehicle […]

[5] = gastrocnemius of aged mice, ALT-007 vs DMSO

COc1cc(C(=O)N2CC[C@H](NC(=O)c3ccccc3OC(F)(F)F)c3c2cnn3C(C)C)cnc1OC [ALT-007]
neurogenesis pathways in the muscle, GSEA [1, 5]: remarkable upregulation of neurogenesis pathways | proteostasis pathways (protein folding and degradation), GSEA [1, 5]: enrichment of several proteostasis pathways | ribosomal and translation pathways, GSEA [1, 5]: significantly attenuated | neuronal cells in the skeletal muscles (GSEA, MsigDB mouse cell type signature sets) ([1]; old treated vs old untreated mice): increases neuronal cells | metabolic stability [2]: improved | protein aggregates [3]: potent effect in reducing protein aggregates | body weight ([4]; 20 weeks): stable body weight | food intake ([4]; 20 weeks): absence of changes in food intake | gastrointestinal (GI) toxicity by plasma citrulline levels ([4]; 20 weeks, vs untreated mice): no gastrointestinal (GI) toxicity | tissue weights relative to control ([4]; at sacrifice week 20, normalized to body weight): absence of changes

— PMC11729425 (ACS Pharmacology & Translational Science, 2024)
